Several values for one entry are separate records, joined by “and”; a condition that tells them apart may be missing. Identical values can stand only once. Entries after “also recorded” stand apart in the source; their conditions may differ. Like-named read-outs stand apart in the source and are kept apart here.

We go through eight compounds from patent US20250221435A1, “Food Protein-Derived Peptides as Bitter Taste Blockers” (University of Manitoba, priority 2018, published 2025).

Assay [1] has as its target T1, T2R4 (Homo sapiens, UniProt Q9NYW5).
T1 construct: expressed in transfected cells
T1 sequence (Q9NYW5 1-299): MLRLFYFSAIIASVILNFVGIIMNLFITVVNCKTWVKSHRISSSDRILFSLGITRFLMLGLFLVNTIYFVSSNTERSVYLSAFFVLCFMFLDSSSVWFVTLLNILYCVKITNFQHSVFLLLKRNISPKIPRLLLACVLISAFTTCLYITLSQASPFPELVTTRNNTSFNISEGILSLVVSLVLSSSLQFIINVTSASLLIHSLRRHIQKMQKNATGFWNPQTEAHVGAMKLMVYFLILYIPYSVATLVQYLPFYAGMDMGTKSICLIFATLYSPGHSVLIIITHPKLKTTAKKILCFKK
Briefly: Calcium mobilization in T2R4-expressing HEK 293T cell system. Format: cell-based. The conditions noted are these: for blocking of quinine-dependent calcium release: 1 mM quinine plus 5 mg/mL fraction or 1 mM synthesized peptide. The procedure:
Determination of cellular calcium mobilization. Determination of the potential bitter taste-activating or blocking activity of BPH was carried out by measuring intracellular Ca^2+ mobilization using Fluo-4 NW calcium assay kit as previously described.^3 Stable transfected HEK293 cells expressing T2R4 and G-alpha 16/44 or HEK293T cells expressing only G-alpha 16/44 were used as experimental and negative control group, respectively. Around 1×10^5 cells/well plated in the 96-well BD-falcon biolux plate and then incubated at 37° C. in a CO2 incubator for 16 h. After incubation, the culture medium was substituted (for 40 min at 37° C. in the CO2 incubator followed by 30 min incubation at room temperature) with Fluo-4 NW dye solution, which contained lyophilized dye in 10 mL of assay buffer (1× Hanks' balanced salt solution, 20 mM HEPES) and 100 μL 2.5 mM probenecid added to prevent dye leakage from cytosol. Calcium mobilization was measured in terms of relative fluorescence units (RFUs) using a Flexstation-3 microplate reader (Molecular Devices, CA, USA) at 525 nm, following 494 nm excitation. […] The basal intracellular calcium levels were measured for the first 20 s followed by addition of appropriate concentration of ligands for another 120 s. To get the absolute RFUs, the basal RFU before adding the ligand, which was labeled minimum value (Min) was deducted from the maximum RFU (Max) obtained after stimulating with the ligand (absolute RFUs=Max−Min). […] Data were collected from two independent experiments, each done in triplicate.
(A change in cytosolic calcium serves as a functional read-out for many receptors and channels.)

The target in a further assay is T2, T2R14 (Homo sapiens, UniProt Q9NYV8).
T2 construct: expressed in transfected cells
T2 sequence (Q9NYV8 1-317): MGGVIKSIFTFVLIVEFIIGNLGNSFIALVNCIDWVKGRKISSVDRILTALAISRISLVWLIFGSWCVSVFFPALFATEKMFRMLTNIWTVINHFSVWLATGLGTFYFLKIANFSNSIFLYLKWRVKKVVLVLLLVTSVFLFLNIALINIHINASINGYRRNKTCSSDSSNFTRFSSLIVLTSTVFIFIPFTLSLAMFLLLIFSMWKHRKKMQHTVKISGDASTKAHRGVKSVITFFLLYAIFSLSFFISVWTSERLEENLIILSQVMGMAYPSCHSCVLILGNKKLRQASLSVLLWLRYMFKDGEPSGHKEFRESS
Briefly: Peptides and agonist competition calcium mobilization assays on T2R14. It is filed as cell-based. The conditions noted are these: for IC50: IC50 for T2R14 activated by diphenhydramine, diphenhydramine 0.5 mM, peptide 0.015 mM-1 mM, HEK293T cells stably expressing T2R14; for blocking of diphenhydramine-dependent T2R14 activation: competition calcium mobilization assay. The protocol: FIG. 9. Peptides and agonist competition calcium mobilization assays on T2R14. HEK293T cells stably expressing T2R14 were treated with the agonist diphenhydramine (0.5 mM) and with increasing concentrations of Peptide 4 (ETSARHL) and Peptide 5 (AGDDAPRAVF) ranging from 0.015 mM-1 mM. Changes in intracellular calcium were measured (ΔRFUs), and IC50 values were calculated using GraphPad Prism 4.0. […] Data were collected from a minimum of two independent experiments carried out in triplicate.
To generalize the applicability of these peptides in blocking other T2Rs, we choose T2R14 as our next target.
Determination of cellular calcium mobilization. Determination of the potential bitter taste-activating or blocking activity of BPH was carried out by measuring intracellular Ca^2+ mobilization using Fluo-4 NW calcium assay kit as previously described.^3 Stable transfected HEK293 cells expressing T2R4 and G-alpha 16/44 or HEK293T cells expressing only G-alpha 16/44 were used as experimental and negative control group, respectively. Around 1×10^5 cells/well plated in the 96-well BD-falcon biolux plate and then incubated at 37° C. in a CO2 incubator for 16 h. After incubation, the culture medium was substituted (for 40 min at 37° C. in the CO2 incubator followed by 30 min incubation at room temperature) with Fluo-4 NW dye solution, which contained lyophilized dye in 10 mL of assay buffer (1× Hanks' balanced salt solution, 20 mM HEPES) and 100 μL 2.5 mM probenecid added to prevent dye leakage from cytosol. Calcium mobilization was measured in terms of relative fluorescence units (RFUs) using a Flexstation-3 microplate reader (Molecular Devices, CA, USA) at 525 nm, following 494 nm excitation. Based on the e-tongue data, BPH at 5 mg/mL, BCML at 59 nM and agonist quinine at 1 mM were used individually or in combination with peptides to determine activation of T2R4. BPH or BCML was then mixed with quinine (1 mM final concentration) to obtain 5 mg/mL or 59 nM, respectively and used to determine inactivation of T2R4. The basal intracellular calcium levels were measured for the first 20 s followed by addition of appropriate concentration of ligands for another 120 s. To get the absolute RFUs, the basal RFU before adding the ligand, which was labeled minimum value (Min) was deducted from the maximum RFU (Max) obtained after stimulating with the ligand (absolute RFUs=Max−Min). Next, the signals from the negative control group cells were deducted from the observed signal of experimental group cells to give ΔRFUs. Data were collected from two independent experiments, each done in triplicate. PRISM software version 4.03 (GraphPad Software, San Diego) was used for data analysis.

Assay [2] in a line: Estimation of bitter scores by electronic-tongue (e-tongue). The following applies: 1 mM quinine mixed with 5 mg/mL hydrolysate or 59 nM BCML. The protocol: Estimation of bitter scores by electronic-tongue (e-tongue). Each BPH was dissolved in distilled water to give 0.5, 1.0, 2.5, 5.0, and 10.0 mg/mL concentrations followed by filtration first through a 0.45 μm filter disc and then a 0.2 μm filter. Bitter scores of filtered BPH solutions (20 mL) were evaluated using the Astree II E-tongue system (Alpha M.O.S., Toulouse, France). This system is a completely automated taste analyzer equipped with seven sensors, BD, EB, JA, JG, KA, OA, and JE, based on the ChemFET technology (Chemical modified Field Effect Transistor) to analyze liquid samples. Firstly, 0.01 M HCl was used to condition and calibrate sensors and the reference electrode repeatedly until stable signals were obtained for all seven sensors with minimal or no noise and drift. […] Thereafter, the PLS bitterness standard model was constructed using several bitter taste compounds with known bitter taste scores determined from human panelists, including 0.24 mM and 2.36 mM caffeine, 0.03 mM and 0.12 mM quinine, 0.44 mM and 0.88 mM prednisolone, as well as 3.31 mM and 19.85 mM paracetamol. […] The 5 mg/ml sample was determined as the maximum strength useful to evaluate BPH bitterness intensity and this concentration was subsequently used to obtain bitter scores. […]

In assay [3] the target is T1, T2R4. The following applies: known T2R4 bitter taste blocker, positive control; read-out: IC50 for quinine of known T2R4 bitter taste blocker; cited from earlier work.
The conditions of assay [4]: 10 mM quinine solution; cited from earlier work.

Usually IC50 stands for the concentration that inhibits the measured activity by half. Consider `CC(C)[C@H](NC(=O)[C@H](C)NC(=O)[C@H](CCCNC(=N)N)NC(=O)[C@@H]1CCCN1C(=O)[C@H](C)NC(=O)[C@H](CC(=O)O)NC(=O)[C@H](CC(=O)O)NC(=O)CNC(=O)[C@H](C)N)C(=O)N[C@@H](Cc1ccccc1)C(=O)O` [AGDDAPRAVF], for which the IC50 on T2R4 [1] is 85 µM. Also, the “blocking of quinine-dependent calcium release” value on T2R4 [1] (T2R4-expressing HEK 293T cells) is “less calcium mobilization; also recorded: most effective blocker; also recorded: suppressed quinine-dependent calcium release”. Besides, on T2R14, the IC50 was ~100 µM and 118 µM; the “blocking of diphenhydramine-dependent T2R14 activation” value is recorded as “effective in blocking”.
Consider `NCCCC[C@@H](C(=O)O)N(CC(=O)O)CC(=O)O` [BCML, Nα,Nα-bis(carboxymethyl)-I-lysine], for which the “suppression of quinine bitterness intensity (e-tongue)” value in assay [2] is “most decrease”. Also, the IC50 at T2R4 [3] is 59 nM.
As to `CC(C)C[C@H](NC(=O)[C@H](Cc1c[nH]cn1)NC(=O)[C@H](CCCNC(=N)N)NC(=O)[C@H](C)NC(=O)[C@H](CO)NC(=O)[C@@H](NC(=O)[C@@H](N)CCC(=O)O)[C@@H](C)O)C(=O)O` [ETSARHL], the “blocking of quinine-dependent calcium release” value on T2R4 [1] (T2R4-expressing HEK 293T cells) is “less calcium mobilization; also recorded: suppressed quinine-dependent calcium release; also recorded: most effective”. Further, at T2R14, the concentration for half-maximal inhibition (IC50) was ~100 µM and 121 µM; the “blocking of diphenhydramine-dependent T2R14 activation” value is recorded as “effective in blocking”.
With `C=C[C@H]1C[N@@]2CC[C@H]1C[C@H]2[C@H](O)c1ccnc2ccc(OC)cc12` [Quinine, reference compound], the “calcium mobilization (ΔRFU), sample alone” value at T2R4 [1] (T2R4-expressing HEK 293T cells, hydrolysates 5 mg/mL, quinine 1 mM, peptides 1 mM) is reported as “highest activity”.
As to `Nc1ncnc2c1ncn2[C@H]1C[C@H](O)[C@@H](COP(=O)(O)OP(=O)(O)OP(=O)(O)O)O1` [dATP, 2-deoxyadenosine triphosphate], the “reduction in bitterness of quinine solution” value in assay [4] was 60%.
For the compound “AAMY: peptide AAMY identified from CHYMOTRYPSIN hydrolysate fraction CH-F4-5, chemically synthesized (synthesized bitter taste blocker)”, the “blocking of quinine-dependent calcium release” value with T2R4 [1] (T2R4-expressing HEK 293T cells) is reported as “less calcium mobilization; also recorded: suppressed quinine-dependent calcium release”.
Regarding “AAYM: peptide AAYM identified from CHYMOTRYPSIN hydrolysate fraction CH-F4-5, chemically synthesized (synthesized bitter taste blocker)”, the “blocking of quinine-dependent calcium release” value with T2R4 [1] (T2R4-expressing HEK 293T cells) was “suppressed quinine-dependent calcium release”.
Turning to cytosine monophosphate [CMP], the “reduction in bitterness of quinine solution” value in assay [4] was 40%.
